Experimental data taken from publication PMC7316778 (Nature Communications, 2020).

What was measured:
FES^S700C [1] = molecular target: T1, FES^S700C (Homo sapiens, UniProt P07332, S700C); assay: PamChip microarray peptide phosphorylation; format: biochemical; parameters: human FES cDNA encoding residues 448–822 or human FER cDNA encoding residues 448–820 was amplified by PCR; made in house; host or cells: E. coli BL21(DE3), co-expressing YopH phosphatase; settings: peptide substrate phosphorylated by FES - S700C
T1 sequence (P07332 448-822 S700C): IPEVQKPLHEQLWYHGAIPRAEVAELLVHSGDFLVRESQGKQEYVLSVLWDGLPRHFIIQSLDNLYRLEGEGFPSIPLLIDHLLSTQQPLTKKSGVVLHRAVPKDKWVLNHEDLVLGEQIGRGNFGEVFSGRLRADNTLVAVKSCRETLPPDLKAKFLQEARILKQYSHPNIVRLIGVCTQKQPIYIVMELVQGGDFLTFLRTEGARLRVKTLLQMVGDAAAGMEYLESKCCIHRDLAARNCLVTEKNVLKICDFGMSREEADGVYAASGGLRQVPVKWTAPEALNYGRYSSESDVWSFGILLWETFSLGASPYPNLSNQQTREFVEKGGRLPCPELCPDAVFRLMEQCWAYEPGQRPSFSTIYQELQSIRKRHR

FES^S700C [2] = molecular target: T1, FES^S700C; assay: In vitro TR-FRET kinase assay; format: biochemical; parameters: human FES cDNA encoding residues 448–822 or human FER cDNA encoding residues 448–820 was amplified by PCR; made in house; host or cells: E. coli BL21(DE3), co-expressing YopH phosphatase; settings: for Residual activity (%): FES S700C, mean, n=3; for Apparent fold selectivity: IC50 on FES^WT divided by IC50 on FES^S700C; for IC50: read-out: pIC50 FES^S700C (converted)

EFS_246_258_Y253F (GGTDEGIFDVPLL; UniProt O43281 246-258, looked up, fragment Y253F)
Relative phosphorylation (% of highest signal) (FES^S700C [1]): -1.4 % of highest signal

VGFR2_1046_1058 (DFGLARDIYKDPD; UniProt P35968 1046-1058, looked up, fragment)
Relative phosphorylation (% of highest signal) (FES^S700C [1]): 2.1 % of highest signal

AMPE_5_17 (EREGSKRYCIQTK; UniProt Q07075 5-17, looked up, fragment)
Relative phosphorylation (% of highest signal) (FES^S700C [1]): -0.5 % of highest signal

STAT6_634_646 (MGKDGRGYVPATI; UniProt P42226 634-646, looked up, fragment)
Relative phosphorylation (% of highest signal) (FES^S700C [1]): -0.6 % of highest signal

VGFR3_1061_1073 (DIYKDPDYVRKGS; UniProt P35916 1061-1073, looked up, fragment)
Relative phosphorylation (% of highest signal) (FES^S700C [1]): 0.1 % of highest signal

VGFR1_1049_1061 (KNPDYVRKGDTRL; UniProt P17948 1049-1061, looked up, fragment)
Relative phosphorylation (% of highest signal) (FES^S700C [1]): -0.7 % of highest signal

CCC(=O)Nc1ccccc1Nc1nc(Nc2ccccc2OC)ncc1Cl [Supplementary Figure 1f]
Residual activity (%) (FES^S700C [2]; log[inhibitor] (M) = -5): 51.0323%
Residual activity (%) (FES^S700C [2]; log[inhibitor] (M) = -5.52288): 52.0081%
Residual activity (%) (FES^S700C [2]; log[inhibitor] (M) = -6): 80.9285%
Residual activity (%) (FES^S700C [2]; log[inhibitor] (M) = -6.52288): 101.29%
Residual activity (%) (FES^S700C [2]; log[inhibitor] (M) = -7): 99.7119%
Residual activity (%) (FES^S700C [2]; log[inhibitor] (M) = -7.52288): 103.019%
Residual activity (%) (FES^S700C [2]; log[inhibitor] (M) = -8): 101.749%

COc1ccccc1Nc1ncc(Cl)c(Nc2ccccc2S(=O)(=O)C(C)C)n1 [Compound 2]
Apparent fold selectivity (FES^S700C [2]): 2.5 fold
IC50 (FES^S700C [2]; TR-FRET assay, 5 µM ATP, n = 3): 15.8 nM

VGFR1_1206_1218 (GSSDDVRYVNAFK; UniProt P17948 1206-1218, looked up, fragment)
Relative phosphorylation (% of highest signal) (FES^S700C [1]): 0.24 % of highest signal

NTRK2_509_521 (PVIENPQYFGITN; UniProt Q16620 509-521, looked up, fragment)
Relative phosphorylation (% of highest signal) (FES^S700C [1]): -1.0 % of highest signal

DDR1_506_518 (LLLSNPAYRLLLA; UniProt Q08345 506-518, looked up, fragment)
Relative phosphorylation (% of highest signal) (FES^S700C [1]): -0.9 % of highest signal

C=CC(=O)Nc1cccc(Nc2nc(Nc3ccccc3OC)ncc2Cl)c1 [Supplementary Figure 1d]
Residual activity (%) (FES^S700C [2]; log[inhibitor] (M) = -5): -0.2497%
Residual activity (%) (FES^S700C [2]; log[inhibitor] (M) = -5.52288): -0.5097%
Residual activity (%) (FES^S700C [2]; log[inhibitor] (M) = -6): -0.8205%
Residual activity (%) (FES^S700C [2]; log[inhibitor] (M) = -6.52288): -0.4059%
Residual activity (%) (FES^S700C [2]; log[inhibitor] (M) = -7): -0.7051%
Residual activity (%) (FES^S700C [2]; log[inhibitor] (M) = -7.52288): -0.1368%
Residual activity (%) (FES^S700C [2]; log[inhibitor] (M) = -8): 11.6016%
Residual activity (%) (FES^S700C [2]; log[inhibitor] (M) = -8.52288): 70.8547%
Residual activity (%) (FES^S700C [2]; log[inhibitor] (M) = -9): 85.0509%
Residual activity (%) (FES^S700C [2]; log[inhibitor] (M) = -9.52288): 98.0879%
Residual activity (%) (FES^S700C [2]; log[inhibitor] (M) = -10): 85.4934%
Residual activity (%) (FES^S700C [2]; log[inhibitor] (M) = -10.5229): 94.4068%
Residual activity (%) (FES^S700C [2]; log[inhibitor] (M) = -11): 106.971%

VGFR2_1168_1180 (AQQDGKDYIVLPI; UniProt P35968 1168-1180, looked up, fragment)
Relative phosphorylation (% of highest signal) (FES^S700C [1]): 9.5 % of highest signal

VGFR1_1320_1332_C1320K/C1321K (KKSPPPDYNSVVL; UniProt P17948 1320-1332, looked up, variant C1320K C1321K)
Relative phosphorylation (% of highest signal) (FES^S700C [1]): 4.5 % of highest signal

C=CC(=O)Nc1ccccc1Nc1nc(Nc2ccccc2OC)ncc1Cl [Compound 4]
Apparent fold selectivity (FES^S700C [2]): 238 fold
IC50 (FES^S700C [2]; TR-FRET assay, 5 µM ATP, n = 3): 3.98 nM

STA5A_687_699 (LAKAVDGYVKPQI; UniProt P42229 687-699, looked up, fragment)
Relative phosphorylation (% of highest signal) (FES^S700C [1]): -0.9 % of highest signal

Nc1ncnc2c1ncn2[C@@H]1O[C@H](COP(=O)(O)OP(=O)(O)OP(=O)(O)O)[C@@H](O)[C@H]1O [ATP]
Km (FES^S700C [2]; FES^S700C, TR-FRET, 60 min, read-out: ATP KM): 0.79 µM

MK01_198_210 (IMLNSKGYTKSID; UniProt P28482 198-210, looked up, fragment)
Relative phosphorylation (% of highest signal) (FES^S700C [1]): -1.1 % of highest signal

STAT4_686_698 (TERGDKGYVPSVF; UniProt Q14765 686-698, looked up, fragment)
Relative phosphorylation (% of highest signal) (FES^S700C [1]): -0.317 % of highest signal

NPT2A_501_513 (AKALGKRTAKYRW; UniProt Q06495 501-513, looked up, fragment)
Relative phosphorylation (% of highest signal) (FES^S700C [1]): 0.557 % of highest signal

C=CC(=O)Nc1ccccc1Nc1nc(Nc2ccccc2OC)ncc1Cl [Supplementary Figure 1e]
Residual activity (%) (FES^S700C [2]; log[inhibitor] (M) = -5): 5.657%
Residual activity (%) (FES^S700C [2]; log[inhibitor] (M) = -5.52288): 10.8053%
Residual activity (%) (FES^S700C [2]; log[inhibitor] (M) = -6): 28.2387%
Residual activity (%) (FES^S700C [2]; log[inhibitor] (M) = -6.52288): 69.3014%
Residual activity (%) (FES^S700C [2]; log[inhibitor] (M) = -7): 75.3706%
Residual activity (%) (FES^S700C [2]; log[inhibitor] (M) = -7.52288): 96.1185%
Residual activity (%) (FES^S700C [2]; log[inhibitor] (M) = -8): 98.0581%
Residual activity (%) (FES^S700C [2]; log[inhibitor] (M) = -8.52288): 106.349%
Residual activity (%) (FES^S700C [2]; log[inhibitor] (M) = -9): 109.01%
Residual activity (%) (FES^S700C [2]; log[inhibitor] (M) = -9.52288): 116.606%
Residual activity (%) (FES^S700C [2]; log[inhibitor] (M) = -10): 111.768%
Residual activity (%) (FES^S700C [2]; log[inhibitor] (M) = -10.5229): 102.117%
Residual activity (%) (FES^S700C [2]; log[inhibitor] (M) = -11): 99.3612%

VGFR2_1207_1219_C1208S (VSDPKFHYDNTAG; UniProt P35968 1207-1219, looked up, variant C1208S)
Relative phosphorylation (% of highest signal) (FES^S700C [1]): 1.3 % of highest signal

VGFR2_989_1001 (EEAPEDLYKDFLT; UniProt P35968 989-1001, looked up, fragment)
Relative phosphorylation (% of highest signal) (FES^S700C [1]): 14.2 % of highest signal

EPHA2_581_593 (QLKPLKTYVDPHT; UniProt P29317 581-593, looked up, fragment)
Relative phosphorylation (% of highest signal) (FES^S700C [1]): 0.144 % of highest signal

VGFR1_1235_1247 (ATSMFDDYQGDSS; UniProt P17948 1235-1247, looked up, fragment)
Relative phosphorylation (% of highest signal) (FES^S700C [1]): -0.074 % of highest signal

CCC(=O)Nc1ccccc1Nc1nc(Nc2ccccc2OC)ncc1Cl [Compound 5]
pIC50 FES^S700C (FES^S700C [2]; TR-FRET assay, 5 µM ATP, n = 3): low inhibitory potency
IC50 (FES^S700C [2]; TR-FRET assay, 5 µM ATP, n = 3): 6310 nM

STAT1_694_706 (DGPKGTGYIKTEL; UniProt P42224 694-706, looked up, fragment)
Relative phosphorylation (% of highest signal) (FES^S700C [1]): -0.9 % of highest signal

VGFR2_944_956 (RFRQGKDYVGAIP; UniProt P35968 944-956, looked up, fragment)
Relative phosphorylation (% of highest signal) (FES^S700C [1]): 1.4 % of highest signal

ART_004_EAIYAAPFAKKKXC
Relative phosphorylation (% of highest signal) (FES^S700C [1]): 8.3 % of highest signal

MBP_259_271 (FGYGGRASDYKSA; UniProt P02686 259-271, looked up, fragment)
Relative phosphorylation (% of highest signal) (FES^S700C [1]): -0.258 % of highest signal

COc1ccccc1Nc1ncc(Cl)c(Nc2ccccc2S(=O)(=O)C(C)C)n1 [Supplementary Figure 1c]
Residual activity (%) (FES^S700C [2]; log[inhibitor] (M) = -5): 0.2233%
Residual activity (%) (FES^S700C [2]; log[inhibitor] (M) = -5.52288): 0.2556%
Residual activity (%) (FES^S700C [2]; log[inhibitor] (M) = -6): -0.06933%
Residual activity (%) (FES^S700C [2]; log[inhibitor] (M) = -6.52288): 4.851%
Residual activity (%) (FES^S700C [2]; log[inhibitor] (M) = -7): 14.3041%
Residual activity (%) (FES^S700C [2]; log[inhibitor] (M) = -7.52288): 33.9502%
Residual activity (%) (FES^S700C [2]; log[inhibitor] (M) = -8): 66.7428%
Residual activity (%) (FES^S700C [2]; log[inhibitor] (M) = -8.52288): 88.3714%
Residual activity (%) (FES^S700C [2]; log[inhibitor] (M) = -9): 94.1217%
Residual activity (%) (FES^S700C [2]; log[inhibitor] (M) = -9.52288): 96.7458%
Residual activity (%) (FES^S700C [2]; log[inhibitor] (M) = -10): 89.1056%
Residual activity (%) (FES^S700C [2]; log[inhibitor] (M) = -10.5229): 99.8276%
Residual activity (%) (FES^S700C [2]; log[inhibitor] (M) = -11): 106.567%

VINC_815_827 (KSFLDSGYRILGA; UniProt P18206 815-827, looked up, fragment)
Relative phosphorylation (% of highest signal) (FES^S700C [1]): 0.6 % of highest signal

MBP_263_275 (GRASDYKSAHKGF; UniProt P02686 263-275, looked up, fragment)
Relative phosphorylation (% of highest signal) (FES^S700C [1]): -0.5 % of highest signal

PERI_458_470 (QRSELDKSSAHSY; UniProt P41219 458-470, looked up, fragment)
Relative phosphorylation (% of highest signal) (FES^S700C [1]): -1.0 % of highest signal

ZAP70_485_497 (ALGADDSYYTARS; UniProt P43403 485-497, looked up, fragment)
Relative phosphorylation (% of highest signal) (FES^S700C [1]): 7.2 % of highest signal

VGFR1_1046_1058_Y1048F (DIFKNPDYVRKGD; UniProt P17948 1046-1058, looked up, variant Y1048F)
Relative phosphorylation (% of highest signal) (FES^S700C [1]): -0.9 % of highest signal

ZBT16_621_633 (LRTHNGASPYQCT; UniProt Q05516 621-633, looked up, fragment)
Relative phosphorylation (% of highest signal) (FES^S700C [1]): 1.1 % of highest signal

EPHA4_921_933 (QAIKMDRYKDNFT; UniProt P54764 921-933, looked up, fragment)
Relative phosphorylation (% of highest signal) (FES^S700C [1]): -0.7 % of highest signal

EPOR_361_373 (SEHAQDTYLVLDK; UniProt P19235 361-373, looked up, fragment)
Relative phosphorylation (% of highest signal) (FES^S700C [1]): 5.7 % of highest signal

ODBA_340_352_D340K (KDSSAYRSVDEVN; UniProt P12694 340-352, looked up, variant D340K)
Relative phosphorylation (% of highest signal) (FES^S700C [1]): -0.7 % of highest signal

VGFR1_1162_1174 (VQQDGKDYIPINA; UniProt P17948 1162-1174, looked up, fragment)
Relative phosphorylation (% of highest signal) (FES^S700C [1]): 4.4 % of highest signal
